# From publication PMC9127750, “Structure-based design of CDC42 effector interaction inhibitors for the treatment of cancer” (Cell reports, 2022)
# Several values for one entry are separate records, joined by “and”; a condition that tells them apart may be missing. Equal values may be shown once.
# Test system: WM3248 melanoma cells, 486 antibodies
# Experiment: Reverse phase protein arrays (RPPA)
# Type: cell-based, Human
# Conditions: 5 uM
# Excerpt: Pellets were snap frozen in liquid nitrogen and shipped to MD Anderson Cancer Center core RPPA facility for RPPA analysis (Table S5). Three biological replicates for each sample were generated.
# Nomenclatures on the RPPA heatmaps: name_of_antibody.species_of_antibody.status_of_antibody. V - antibody validated; C - validation of antibody in progress; Q - antibody nonspecific; E – under evaluation; antibodies raised in M - mouse, G - goat, R - rabbit, or T - rat.
compound,measurement,setting,value
"CN(C)c1cccc(Nc2cc(-c3ccccc3)nc(C3CCNCC3)n2)c1 [ARN22089, N1,N1-dimethyl-N3-(6-phenyl-2-(piperidin-4-yl)pyrimidin-4-yl)benzene-1,3-diamine]",RPPA RIP3.R.C,single replicates,0.966 and 1.053 and 1.158
same,RPPA RIP.R.C,single replicates,1.003 and 0.876 and 0.747
same,RPPA RPA32.R.V,single replicates,0.852 and 0.696
same,RPPA RPA32_pS4_S8.R.C,single replicates,1.136 and 0.833 and 0.517
same,RPPA RRM1.R.C,single replicates,0.879 and 1.059 and 1.047
same,RPPA RRM2.R.C,single replicates,0.859 and 1.229 and 0.937
same,RPPA RSK1.R.V,single replicates,1.126 and 0.877 and 0.665
same,RPPA RSK.R.C,single replicates,1.019 and 0.958
same,RPPA Rab11.R.C,single replicates,0.952 and 1.156 and 1.116
same,RPPA Rab25.R.V,single replicates,0.918 and 1.136 and 1.098
same,RPPA Rad17_pS645.R.V,single replicates,0.999 and 1.251 and 0.988
same,RPPA Rad23A.R.C,single replicates,0.955 and 1.149 and 0.502
same,RPPA Rad50.R.V,single replicates,1.003 and 1.194 and 0.770
same,RPPA Rad51.R.C,single replicates,1.003 and 1.032 and 0.980
same,RPPA Raptor.R.V,single replicates,0.960 and 1.161 and 0.962
same,RPPA Rb.M.Q,single replicates,1.194 and 0.869 and 0.844
same,RPPA Rb_pS807_S811.R.V,single replicates,1.080 and 1.099 and 0.998
same,RPPA Rheb.M.C,single replicates,1.062 and 0.914 and 0.936
same,RPPA Rictor.R.C,single replicates,1.000 and 1.032 and 1.026
same,RPPA Rictor_pT1135.R.V,single replicates,1.014 and 1.199 and 1.106
same,RPPA S6.M.V,single replicates,1.062 and 0.879 and 1.272
same,RPPA S6_pS235_S236.R.V,single replicates,1.439 and 1.242 and 1.218
same,RPPA S6_pS240_S244.R.V,single replicates,1.857 and 2.231 and 1.126
same,RPPA SCD.M.V,single replicates,1.065 and 0.945 and 1.006
same,RPPA SDHA.R.V,single replicates,0.933 and 1.191 and 1.108
same,RPPA SF2.R.V,single replicates,1.031 and 0.941 and 1.112
same,RPPA SFRP1.R.V,single replicates,1.004 and 0.892 and 0.990
same,RPPA SGK1.R.V,single replicates,1.163 and 1.199 and 0.933
same,RPPA SGK3.R.V,single replicates,0.990 and 0.992 and 0.997
same,RPPA SHP2.R.V,single replicates,1.046 and 0.930 and 1.005
same,RPPA SHP.2_pY542.R.C,single replicates,0.901 and 0.851
same,RPPA SIRPαR.V,single replicates,1.213 and 0.860 and 0.910
same,RPPA SLC1A5.R.C,single replicates,0.927 and 0.907 and 0.859
same,RPPA SOD1.M.V,single replicates,0.996 and 0.939
same,RPPA SOD2.R.V,single replicates,1.034 and 0.952 and 1.114
same,RPPA SOX7.R.V,single replicates,0.983 and 0.930 and 0.848
same,RPPA STING.R.V,single replicates,0.930 and 1.130 and 0.957
same,RPPA Shc_pY317.R.C,single replicates,0.667 and 0.896
same,RPPA Slfn11.G.C,single replicates,0.877 and 0.828 and 0.650
same,RPPA Smac.M.Q,single replicates,0.952 and 1.016 and 0.799
same,RPPA Smad1.R.V,single replicates,0.992 and 1.196 and 1.151
same,RPPA Smad3.R.V,single replicates,0.939 and 1.113 and 0.837
same,RPPA Smad4.R.V,single replicates,1.058 and 0.905 and 1.133
same,RPPA Snail.M.Q,single replicates,1.030 and 0.955 and 1.052
same,RPPA Sox2.R.V,single replicates,0.983 and 0.974 and 1.000
same,RPPA Sox17.R.V,single replicates,0.873 and 0.902
same,RPPA Src.M.V,single replicates,1.031 and 1.029 and 1.140
same,RPPA Src_pY416.R.V,single replicates,1.004 and 0.964
same,RPPA Src_pY527.R.V,single replicates,0.980 and 1.499
same,RPPA Stat1_pY701.R.V,single replicates,1.025 and 0.919 and 0.955
same,RPPA Stat3.R.C,single replicates,1.026 and 1.019
same,RPPA Stat3_pY705.R.C,single replicates,1.097 and 0.794 and 0.850
same,RPPA Stat5a.R.V,single replicates,0.973 and 1.401 and 1.115
same,RPPA Stathmin.1.R.V,single replicates,0.937 and 0.952 and 1.084
same,RPPA Syk.M.V,single replicates,0.889 and 1.061 and 1.011
same,RPPA Synaptophysin.R.C,single replicates,1.047 and 0.925 and 1.079
same,RPPA TAZ.R.V,single replicates,1.033 and 0.986 and 0.848
same,RPPA TEAD.R.C,single replicates,0.869 and 1.210 and 0.956
same,RPPA TFAM.R.V,single replicates,0.929 and 1.064 and 1.050
same,RPPA TFRC.R.V,single replicates,0.850 and 0.994
same,RPPA TIGAR.R.V,single replicates,1.007 and 1.053
same,RPPA TRAP1.M.V,single replicates,1.020 and 0.986
same,RPPA TRIM24.R.C,single replicates,1.055 and 0.901
same,RPPA TRIM25.R.C,single replicates,0.917 and 1.142 and 1.151
same,RPPA TRIP13.R.V,single replicates,1.080 and 0.849 and 0.914
same,RPPA Tau.M.C,single replicates,0.914 and 1.000
same,RPPA Transglutaminase.M.V,single replicates,1.130 and 0.535
same,RPPA level HLA.DQA1.R.V,single replicates,0.968 and 1.061 and 0.815
same,RPPA level HLA.DR.DP.DQ.DX.R.C,single replicates,0.974 and 0.976 and 0.833
same,RPPA level HMHA1.R.V,single replicates,1.021 and 1.238 and 1.140
same,RPPA level HNRNPK.R.V,single replicates,0.971 and 0.906
same,RPPA level HSP27.M.C,single replicates,1.164 and 1.033
same,RPPA level HSP27_pS82.R.V,single replicates,0.984 and 1.234 and 1.120
same,RPPA level HSP60.R.V,single replicates,0.905 and 1.108
same,RPPA level HSP70.R.C,single replicates,0.973 and 0.970
same,RPPA level Hexokinase.I.R.C,single replicates,0.945 and 0.709
same,RPPA level Hexokinase.II.R.V,single replicates,1.124 and 0.975 and 0.876
same,RPPA level Hif.1αR.C,single replicates,1.102 and 1.349 and 0.701
same,RPPA level Histone.H3.R.V,single replicates,0.982 and 1.330 and 0.576
same,RPPA level Histone.H3_pS10.R.V,single replicates,0.692 and 0.713
same,RPPA level IDO.R.C,single replicates,0.970 and 1.199 and 1.031
same,RPPA level IGF1R_pY1135_Y1136.R.V,single replicates,0.923 and 1.035 and 1.147
same,RPPA level IGFBP2.R.V,single replicates,0.536 and 0.864 and 1.227
same,RPPA level IGFBP3.M.V,single replicates,0.749 and 0.955 and 1.168
same,RPPA level IGFRb.R.C,single replicates,0.930 and 1.171
same,RPPA level IL.6.R.C,single replicates,0.941 and 1.064 and 1.146
same,RPPA level IMP3.R.C,single replicates,0.986 and 0.965
same,RPPA level INPP4b.R.C,single replicates,1.116 and 0.899 and 0.832
same,RPPA level IR.b.R.C,single replicates,1.320 and 1.103
same,RPPA level IRF.1.R.V,single replicates,0.717 and 1.139 and 1.144
same,RPPA level IRF.3.R.V,single replicates,0.919 and 1.034
same,RPPA level IRS1.R.V,single replicates,0.981
same,RPPA level IRS2.R.C,single replicates,0.999 and 0.927 and 0.986
same,RPPA level JAB1.M.C,single replicates,1.009 and 0.971
same,RPPA level JNK2.R.V,single replicates,0.702 and 1.165 and 0.800
same,RPPA level JNK_pT183_Y185.R.C,single replicates,0.946 and 1.035 and 1.097
same,RPPA level Jagged1.R.V,single replicates,0.958 and 1.186 and 0.974
same,RPPA level Jak2.R.V,single replicates,0.877 and 1.121
same,RPPA level KAP1.R.V,single replicates,1.023 and 0.961 and 0.759
same,RPPA level KEAP1.R.V,single replicates,1.060 and 0.798 and 0.885
same,RPPA level LAD1.R.V,single replicates,0.906 and 1.221 and 0.985
same,RPPA level LC3A.B.R.C,single replicates,0.962 and 0.690
same,RPPA level LCN2.R.V,single replicates,2.079 and 0.667 and 0.750
same,RPPA level LDHA.R.C,single replicates,1.269 and 0.924 and 0.174
same,RPPA level LRP6_pS1490.R.V,single replicates,0.923 and 1.082 and 1.190
same,RPPA level Lasu1.R.V,single replicates,0.830 and 0.833
same,RPPA level Lck.R.V,single replicates,0.914 and 1.025 and 0.835
same,RPPA level Lyn.R.V,single replicates,0.857 and 0.712
same,RPPA level MACC1.R.V,single replicates,0.983 and 0.952 and 1.126
same,RPPA level MAPK_pT202_Y204.R.C,single replicates,0.962 and 0.989 and 1.287
same,RPPA level MCT4.R.V,single replicates,0.631 and 1.046 and 1.198
same,RPPA level MDM2_pS166.R.V,single replicates,0.981 and 1.059 and 0.658
same,RPPA level MEK1.R.V,single replicates,0.979 and 2.685
same,RPPA level MEK1_pS217_S221.R.V,single replicates,0.968 and 1.488 and 0.918
same,RPPA level MEK2.R.V,single replicates,1.028 and 1.188 and 0.905
same,RPPA level MERIT40.R.C,single replicates,0.976 and 0.913
same,RPPA level MERIT40_pS29.R.V,single replicates,0.986 and 0.944
same,RPPA level METTL3.R.V,single replicates,1.157 and 0.890 and 0.714
same,RPPA level MIF.R.C,single replicates,0.954 and 1.000
same,RPPA level MIG6.R.V,single replicates,1.004 and 0.977
same,RPPA level MITF.R.V,single replicates,1.035 and 0.897
same,RPPA level MLH1.M.V,single replicates,0.967 and 0.818
same,RPPA level MLKL.R.V,single replicates,0.948
same,RPPA level MMP2.R.V,single replicates,1.053 and 0.940 and 0.993
same,RPPA level MMP14.R.V,single replicates,0.806 and 0.852 and 1.235
same,RPPA level MR1.M.C,single replicates,0.985 and 1.126 and 0.989
same,RPPA level MRAP.R.C,single replicates,1.027 and 1.099 and 1.056
same,RPPA level MSH2.R.C,single replicates,0.981 and 0.975 and 0.839
same,RPPA level MSH6.R.C,single replicates,0.974 and 1.034 and 0.768
same,RPPA level MSI2.R.C,single replicates,1.007 and 0.996 and 1.009
same,RPPA level MTCO1.M.V,single replicates,1.026 and 0.959 and 0.846
same,RPPA level MTSS1.M.C,single replicates,0.922 and 1.002
same,RPPA level Mcl.1.R.V,single replicates,0.903 and 1.197 and 1.129
same,RPPA level MelanA.R.C,single replicates,0.929 and 1.064 and 1.083
same,RPPA level Melanoma.gp100.R.C,single replicates,0.903 and 1.116 and 1.163
same,RPPA level Merlin.R.C,single replicates,0.905 and 1.160 and 0.615
same,RPPA level Midkine.R.V,single replicates,1.000 and 0.968 and 1.034
same,RPPA level Mitofusin.1.R.V,single replicates,0.993 and 1.106 and 1.060
same,RPPA level Mitofusin.2.R.V,single replicates,0.878 and 0.979
same,RPPA level Mnk1.R.V,single replicates,1.011 and 1.102
same,RPPA level mTOR.R.V,single replicates,1.085 and 1.120 and 0.844
same,RPPA level mTOR_pS2448.R.C,single replicates,1.164 and 0.821
same,RPPA p21.R.C,single replicates,1.391 and 0.730 and 1.025
same,RPPA p27.Kip1.R.C,single replicates,1.014 and 0.921 and 0.908
same,RPPA p27_pT157.R.C,single replicates,0.998 and 1.050 and 0.780
same,RPPA p27_pT198.R.V,single replicates,0.905 and 1.281 and 1.122
same,RPPA p38.MAPK.R.V,single replicates,1.001 and 1.097
same,RPPA p38.MAPK._pT180_Y182.R.V,single replicates,0.866 and 2.597 and 1.276
same,RPPA p38.a.M.V,single replicates,1.063 and 0.940 and 0.948
same,RPPA p44.42.MAPK.R.V,single replicates,1.135 and 1.025 and 0.778
same,RPPA p53.R.C,single replicates,0.836 and 1.157 and 1.162
same,RPPA p70.S6K1.R.V,single replicates,1.053 and 0.972
same,RPPA p70.S6K_pT389.R.V,single replicates,0.923 and 1.455 and 1.050
same,RPPA p90RSK_pT573.R.C,single replicates,1.055 and 0.692
same,RPPA DNMT1.R.V,single samples,0.942 and 1.005
same,RPPA DRP1.R.V,single samples,1.048 and 0.924 and 1.058
same,RPPA DUSP4.R.V,single samples,1.207
same,RPPA DUSP6.R.C,single samples,1.757
same,RPPA DYRK1B.R.C,single samples,1.023 and 0.961 and 1.055
same,RPPA Dvl3.R.V,single samples,0.942 and 1.023 and 1.077
same,RPPA E2F1.R.V,single samples,0.971 and 1.007 and 0.906
same,RPPA E.Cadherin.R.V,single samples,0.967 and 0.935 and 0.968
same,RPPA EGFR.R.V,single samples,0.950 and 1.055 and 0.936
